Counter-ions that a name gives are not always drawn.
System: HiBiT-HSD17β13 fusion protein (N-terminal HiBiT-tagged HSD17β13 isoform D) in Huh7 HiBiT-HSD17β13 OE cells
Assay: Whole-cell Huh7-HSD17B13 HiBiT assay (degrader potency and maximal efficacy, luminescence readout)
Format: cell-based, human
Conditions: 24 hour incubation, geometric mean, * = geometric mean for all forms tested (parent and salt forms); for DC50: read-out: Huh7_HIBIT-HSD17β13_DC50 GMean DC50; for Huh7_HIBIT-HSD17β13_DC50 GMean Asymptote Maximum: max. concentration 1 μM
In short: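 Huh7 cells stably overexpressing N-terminal HiBiT-tagged HSD17β13 isoform D, clone matched to primary hepatocyte expression, were exposed to an 11-point, 1 in 3.162 dilution series (top 1 μM final) for 24 h at 37° C. Lytic HiBiT luminescence was normalised to DMSO and parental-cell controls; DC50 from four-parameter logistic fit, with CellTiter-Glo counter screen.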

Row | SMILES | DC50 | Huh7_HIBIT-HSD17β13_DC50 GMean Asymptote Maximum
1 | Cn1c(=O)n(C2CCC(=O)NC2=O)c2ccc(CCN3Cc4ccc(-c5ccc6cn([C@H]7CC[C@H](CNC(=O)c8cc(F)c(O)c(F)c8F)CC7)nc6c5)cc4C3)cc21 (mixture of isomers) [Example 106, N-{[(1r,4r)-4-{6-[2-(2-{1-[(3RS)-2,6-dioxopiperidin-3-yl]-3-methyl-2-oxo-2,3-dihydro-1H-benzimidazol-5-yl}ethyl)-2,3-dihydro-1H-isoindol-5-yl]-2H-indazol-2-yl}cyclohexyl]methyl}-2,3,5-trifluoro-4-hydroxybenzamide, trifluoroacetate salt] | 0.22 nM | 80%
2 | O=C1CCN(c2cc(C(=O)N3CCC(CN4CCN(c5ncc(-c6ccc7cn([C@H]8CC[C@H](CNC(=O)c9cc(F)c(O)c(F)c9F)CC8)nc7c6)cn5)CC4)CC3)ccc2Cl)C(=O)N1 [Example 89, N-{[(1r,4r)-4-(6-{2-[4-({1-[4-chloro-3-(2,4-dioxo-1,3-diazinan-1-yl)benzoyl]piperidin-4-yl}methyl)piperazin-1-yl]pyrimidin-5-yl}-2H-indazol-2-yl)cyclohexyl]methyl}-2,3,5-trifluoro-4-hydroxybenzamide, formate salt] | 3 nM | 77%
3 | Cn1c(=O)n(C2CCC(=O)NC2=O)c2ccc(CCCN3CC(n4cc(-c5ccc6cn([C@H]7CC[C@H](CNC(=O)c8cc(F)c(O)c(F)c8F)CC7)nc6c5)cn4)C3)cc21 (mixture of isomers) [Example 33, N-{[(1r,4r)-4-(6-{1-[1-(3-{1-[(3RS)-2,6-dioxopiperidin-3-yl]-3-methyl-2-oxo-2,3-dihydro-1H-benzimidazol-5-yl}propyl)azetidin-3-yl]-1H-pyrazol-4-yl}-2H-indazol-2-yl)cyclohexyl]methyl}-2,3,5-trifluoro-4-hydroxybenzamide] | 0.62 nM | 86%
4 | O=C1CCN(c2cnn3cc(CCCN4CCO[C@]5(CCN(c6ccc7cn([C@H]8CC[C@H](CNC(=O)c9cc(F)c(O)c(F)c9F)CC8)nc7c6)C5)C4)ccc23)C(=O)N1 (single isomer, unassigned) [Example 30, trifluoroacetate salt] | 1.7 nM | 74%
5 | O=C1CCN(c2cc(C(=O)N3CCC4(CCC(N5CCN(c6ccc7cn([C@H]8CC[C@H](CNC(=O)c9cc(F)c(O)c(F)c9)CC8)nc7c6)CC5)CC4)CC3)ccc2Cl)C(=O)N1 [Example 110, N-({(1r,4r)-4-[6-(4-{3-[4-chloro-3-(2,4-dioxo-1,3-diazinan-1-yl)benzoyl]-3-azaspiro[5.5]undecan-9-yl}piperazin-1-yl)-2H-indazol-2-yl]cyclohexyl}methyl)-3,5-difluoro-4-hydroxybenzamide] | 2.9 nM | 77%
6 | O=C1CCN(c2cnn3cc(CCCN4CCN(c5nccc(-c6nc([C@]78CC[C@](CNC(=O)c9cc(F)c(O)c(F)c9F)(CC7)CC8)no6)n5)CC4)ccc23)C(=O)N1 [Example 61, N-[(4-{5-[2-(4-{3-[3-(2,4-dioxo-1,3-diazinan-1-yl)pyrazolo[1,5-a]pyridin-6-yl]propyl}piperazin-1-yl)pyrimidin-4-yl]-1,2,4-oxadiazol-3-yl}bicyclo[2.2.2]octan-1-yl)methyl]-2,3,5-trifluoro-4-hydroxybenzamide, trifluoroacetate salt] | 2.6 nM | 72%
7 | Cn1c(=O)n(C2CCC(=O)NC2=O)c2ccc(CCCN3CCOC4(C3)CN(c3ncc(-c5ccc6cn(C7CCC(CNC(=O)c8cc(F)c(O)c(F)c8F)CC7)nc6c5)cn3)C4)cc21.O=C(O)C(F)(F)F (racemic) [Example 13, N-{[(1r,4r)-4-(6-{2-[8-(3-{1-[(3RS)-2,6-Dioxopiperidin-3-yl]-3-methyl-2-oxo-2,3-dihydro-1H-benzimidazol-5-yl}propyl)-5-oxa-2,8-diazaspiro[3.5]nonan-2-yl]pyrimidin-5-yl}-2H-indazol-2-yl)cyclohexyl]methyl}-2,3,5-trifluoro-4-hydroxybenzamide, trifluoroacetate salt] | 0.14 nM | 81%
8 | Cc1ccc(C(=O)N2CCC3(CCC(c4nc(-c5ccc6cn([C@H]7CC[C@H](CNC(=O)c8cc(F)c(O)c(F)c8F)CC7)nc6c5)no4)CC3)CC2)cc1N1CCC(=O)NC1=O [Example 96, N-({(1r,4r)-4-[6-(5-{3-[3-(2,4-dioxo-1,3-diazinan-1-yl)-4-methylbenzoyl]-3-azaspiro[5.5]undecan-9-yl}-1,2,4-oxadiazol-3-yl)-2H-indazol-2-yl]cyclohexyl}methyl)-2,3,5-trifluoro-4-hydroxybenzamide] | 2.7 nM | 81%
9 | O=C1CCN(c2cnn3cc(CCCN4CCN(c5ccc6cn([C@H]7CC[C@H](CNC(=O)c8cc(F)c(O)c(F)c8F)CC7)nc6c5)CC4)ccc23)C(=O)N1 [Example 48, N-({(1r,4r)-4-[6-(4-{3-[3-(2,4-dioxo-1,3-diazinan-1-yl)pyrazolo[1,5-a]pyridin-6-yl]propyl}piperazin-1-yl)-2H-indazol-2-yl]cyclohexyl}methyl)-2,3,5-trifluoro-4-hydroxybenzamide, trifluoroacetate salt] | 1.5 nM | 74%
10 | O=C1CCN(c2cnn3cc(CCN4CCN(c5ncc(-c6ccc7cn([C@H]8CC[C@H](CNC(=O)c9cc(F)c(O)c(F)c9F)CC8)nc7c6)cn5)CC4)ccc23)C(=O)N1 [Example 54, N-{[(1r,4r)-4-{6-[2-(4-{2-[3-(2,4-dioxo-1,3-diazinan-1-yl)pyrazolo[1,5-a]pyridin-6-yl]ethyl}piperazin-1-yl)pyrimidin-5-yl]-2H-indazol-2-yl}cyclohexyl]methyl}-2,3,5-trifluoro-4-hydroxybenzamide, trifluoroacetate salt] | 0.64 nM | 83%
11 | Cl.Cn1c(=O)n(C2CCC(=O)NC2=O)c2ccc(CCN3CCN(c4cnc(-c5ccc6cn(C7CCC(CNC(=O)c8cc(F)c(O)c(F)c8F)CC7)nc6c5)cn4)CC3)cc21 (racemic) [Example 8, N-{[(1r,4r)-4-(6-{5-[4-(2-{1-[(3RS)-2,6-Dioxopiperidin-3-yl]-3-methyl-2-oxo-2,3-dihydro-1H-benzimidazol-5-yl}ethyl)piperazin-1-yl]pyrazin-2-yl}-2H-indazol-2-yl)cyclohexyl]methyl}-2,3,5-trifluoro-4-hydroxybenzamide, hydrochloride salt] | 0.21 nM | 87* %
12 | O=C1CCC(N2Cc3c(OCc4ccc(CN5CCN(c6ccc7cn(C8CCC(CNC(=O)c9cc(F)c(O)c(F)c9)CC8)nc7c6)CC5)cc4)cccc3C2=O)C(=O)N1 (racemic) [Example 6, N-{[(1r,4r)-4-{6-[4-({4-[({2-[(3RS)-2,6-Dioxopiperidin-3-yl]-1-oxo-2,3-dihydro-1H-isoindol-4-yl}oxy)methyl]phenyl}methyl)piperazin-1-yl]-2H-indazol-2-yl}cyclohexyl]methyl}-3,5-difluoro-4-hydroxybenzamide] | 1.4 nM | 76* %
13 | Cc1ccc(C(=O)N2CCC(CN3CCN(c4ncc(-c5ccc6cn(C78CCC(CNC(=O)c9cc(F)c(O)c(F)c9F)(CC7)CC8)nc6c5)cn4)CC3)CC2)cc1N1CCC(=O)NC1=O [Example 114, N-{[4-(6-{2-[4-({1-[3-(2,4-dioxo-1,3-diazinan-1-yl)-4-methylbenzoyl]piperidin-4-yl}methyl)piperazin-1-yl]pyrimidin-5-yl}-2H-indazol-2-yl)bicyclo[2.2.2]octan-1-yl]methyl}-2,3,5-trifluoro-4-hydroxybenzamide] | 2.6 nM | 77%
14 | Cc1ccc(C(=O)N2CCC(CCCCN3CCN(c4ccc5cn(C6CCC(CNC(=O)c7cc(F)c(O)c(F)c7F)CC6)nc5c4)CC3)CC2)cc1N1CCC(=O)NC1=O (stereo not shown) [Example 20, N-{[(1r,4r)-4-{6-[4-(4-{1-[3-(2,4-Dioxo-1,3-diazinan-1-yl)-4-methylbenzoyl]piperidin-4-yl}butyl)piperazin-1-yl]-2H-indazol-2-yl}cyclohexyl]methyl}-2,3,5-trifluoro-4-hydroxybenzamide] | 2.3 nM | 78%
15 | O=C(O)C(F)(F)F.O=C1CCN(c2cnn3cc(CCCN4CCN(c5ncc(-c6ccc7cn(C89CCC(CNC(=O)c%10cc(F)c(O)c(F)c%10F)(CC8)CC9)nc7c6)cn5)CC4)ccc23)C(=O)N1 [Example 105, N-[(4-{6-[2-(4-{3-[3-(2,4-dioxo-1,3-diazinan-1-yl)pyrazolo[1,5-a]pyridin-6-yl]propyl}piperazin-1-yl)pyrimidin-5-yl]-2H-indazol-2-yl}bicyclo[2.2.2]octan-1-yl)methyl]-2,3,5-trifluoro-4-hydroxybenzamide, trifluoroacetate salt] | 1.3 nM | 76%
16 | Cc1ccc(C(=O)N2CCN(CCOc3ncc(-c4ccc5cn(C67CCC(CNC(=O)c8cc(F)c(O)c(F)c8F)(CC6)CC7)nc5c4)cn3)CC2)cc1N1CCC(=O)NC1=O [Example 91, N-[(4-{6-[2-(2-{4-[3-(2,4-dioxo-1,3-diazinan-1-yl)-4-methylbenzoyl]piperazin-1-yl}ethoxy)pyrimidin-5-yl]-2H-indazol-2-yl}bicyclo[2.2.2]octan-1-yl)methyl]-2,3,5-trifluoro-4-hydroxybenzamide] | 3.2 nM | 73%
17 | Cn1c(=O)n(C2CCC(=O)NC2=O)c2ccc(CCCN3CCc4cc(-c5ccc6cn([C@H]7CC[C@H](CNC(=O)c8cc(F)c(O)c(F)c8F)CC7)nc6c5)ncc4C3)cc21 (mixture of isomers) [Example 88, N-{[(1r,4r)-4-{6-[7-(3-{1-[(3RS)-2,6-dioxopiperidin-3-yl]-3-methyl-2-oxo-2,3-dihydro-1H-benzimidazol-5-yl}propyl)-5,6,7,8-tetrahydro-2,7-naphthyridin-3-yl]-2H-indazol-2-yl}cyclohexyl]methyl}-2,3,5-trifluoro-4-hydroxybenzamide] | 1.5 nM | 81%
